Measured values as given in publication PMC6597265 (ACS chemical neuroscience, 2019).

What was measured:
native NMDA receptors = type: binding; conditions: native iGluRs, rat synaptosomes
GluN1/GluN2B = GluN1/GluN2B (Rattus norvegicus, UniProt P35439+Q00960); type: cell-based
GluN1/GluN2C = GluN1/GluN2C (Rattus norvegicus, UniProt P35439+Q00961); type: cell-based
GluN1/GluN2D = GluN1/GluN2D (Rattus norvegicus, UniProt P35439+Q62645); type: cell-based
GluN1/GluN2A [1] = molecular target: GluN1/GluN2A (Rattus norvegicus, UniProt P35439+Q00959); type: cell-based
GluN1/GluN2A [2] = molecular target: GluN1/GluN2A (Rattus norvegicus, UniProt Q00959); type: cell-based; conditions: from Ki values
GluN1/GluN2A (Rattus norvegicus, UniProt Q00959), sequence (Q00959 23-1464, other chains not shown): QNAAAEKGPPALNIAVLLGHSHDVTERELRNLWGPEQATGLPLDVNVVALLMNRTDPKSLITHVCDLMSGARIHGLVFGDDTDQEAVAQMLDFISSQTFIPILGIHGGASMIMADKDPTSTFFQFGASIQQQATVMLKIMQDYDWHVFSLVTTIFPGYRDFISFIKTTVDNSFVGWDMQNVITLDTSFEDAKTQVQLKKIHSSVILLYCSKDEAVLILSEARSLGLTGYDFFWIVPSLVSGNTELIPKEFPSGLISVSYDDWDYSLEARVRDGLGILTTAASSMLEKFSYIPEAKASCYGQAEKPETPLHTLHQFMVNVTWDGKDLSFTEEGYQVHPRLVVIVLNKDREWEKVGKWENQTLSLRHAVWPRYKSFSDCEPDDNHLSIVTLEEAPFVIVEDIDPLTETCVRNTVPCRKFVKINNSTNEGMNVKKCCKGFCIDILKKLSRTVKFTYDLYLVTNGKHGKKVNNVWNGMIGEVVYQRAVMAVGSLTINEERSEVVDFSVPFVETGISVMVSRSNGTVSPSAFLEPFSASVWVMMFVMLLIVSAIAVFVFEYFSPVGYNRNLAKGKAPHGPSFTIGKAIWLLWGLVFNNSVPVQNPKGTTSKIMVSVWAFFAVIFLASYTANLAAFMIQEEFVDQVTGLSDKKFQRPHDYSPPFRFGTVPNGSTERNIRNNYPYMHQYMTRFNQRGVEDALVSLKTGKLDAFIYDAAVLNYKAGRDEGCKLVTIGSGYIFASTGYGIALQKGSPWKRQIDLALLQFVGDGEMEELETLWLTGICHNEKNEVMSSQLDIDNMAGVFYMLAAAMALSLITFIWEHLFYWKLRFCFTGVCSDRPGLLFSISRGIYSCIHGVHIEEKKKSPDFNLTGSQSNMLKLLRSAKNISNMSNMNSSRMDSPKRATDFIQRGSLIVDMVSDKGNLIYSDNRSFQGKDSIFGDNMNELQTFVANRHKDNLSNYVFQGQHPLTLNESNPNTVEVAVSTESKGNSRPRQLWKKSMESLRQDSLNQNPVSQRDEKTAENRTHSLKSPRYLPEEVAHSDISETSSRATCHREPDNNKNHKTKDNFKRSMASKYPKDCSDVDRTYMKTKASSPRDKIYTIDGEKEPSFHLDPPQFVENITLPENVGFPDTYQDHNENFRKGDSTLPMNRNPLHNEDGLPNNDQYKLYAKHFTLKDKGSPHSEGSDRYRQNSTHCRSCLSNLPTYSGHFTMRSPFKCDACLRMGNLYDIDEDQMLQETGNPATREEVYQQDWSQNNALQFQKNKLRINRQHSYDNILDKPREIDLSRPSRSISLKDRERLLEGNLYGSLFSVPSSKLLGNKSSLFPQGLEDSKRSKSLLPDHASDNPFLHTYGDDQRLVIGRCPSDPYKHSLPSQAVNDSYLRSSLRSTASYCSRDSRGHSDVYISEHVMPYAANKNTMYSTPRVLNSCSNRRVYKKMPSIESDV

GluN1/GluN2B, sequence (Q00960 27-1482, other chains not shown): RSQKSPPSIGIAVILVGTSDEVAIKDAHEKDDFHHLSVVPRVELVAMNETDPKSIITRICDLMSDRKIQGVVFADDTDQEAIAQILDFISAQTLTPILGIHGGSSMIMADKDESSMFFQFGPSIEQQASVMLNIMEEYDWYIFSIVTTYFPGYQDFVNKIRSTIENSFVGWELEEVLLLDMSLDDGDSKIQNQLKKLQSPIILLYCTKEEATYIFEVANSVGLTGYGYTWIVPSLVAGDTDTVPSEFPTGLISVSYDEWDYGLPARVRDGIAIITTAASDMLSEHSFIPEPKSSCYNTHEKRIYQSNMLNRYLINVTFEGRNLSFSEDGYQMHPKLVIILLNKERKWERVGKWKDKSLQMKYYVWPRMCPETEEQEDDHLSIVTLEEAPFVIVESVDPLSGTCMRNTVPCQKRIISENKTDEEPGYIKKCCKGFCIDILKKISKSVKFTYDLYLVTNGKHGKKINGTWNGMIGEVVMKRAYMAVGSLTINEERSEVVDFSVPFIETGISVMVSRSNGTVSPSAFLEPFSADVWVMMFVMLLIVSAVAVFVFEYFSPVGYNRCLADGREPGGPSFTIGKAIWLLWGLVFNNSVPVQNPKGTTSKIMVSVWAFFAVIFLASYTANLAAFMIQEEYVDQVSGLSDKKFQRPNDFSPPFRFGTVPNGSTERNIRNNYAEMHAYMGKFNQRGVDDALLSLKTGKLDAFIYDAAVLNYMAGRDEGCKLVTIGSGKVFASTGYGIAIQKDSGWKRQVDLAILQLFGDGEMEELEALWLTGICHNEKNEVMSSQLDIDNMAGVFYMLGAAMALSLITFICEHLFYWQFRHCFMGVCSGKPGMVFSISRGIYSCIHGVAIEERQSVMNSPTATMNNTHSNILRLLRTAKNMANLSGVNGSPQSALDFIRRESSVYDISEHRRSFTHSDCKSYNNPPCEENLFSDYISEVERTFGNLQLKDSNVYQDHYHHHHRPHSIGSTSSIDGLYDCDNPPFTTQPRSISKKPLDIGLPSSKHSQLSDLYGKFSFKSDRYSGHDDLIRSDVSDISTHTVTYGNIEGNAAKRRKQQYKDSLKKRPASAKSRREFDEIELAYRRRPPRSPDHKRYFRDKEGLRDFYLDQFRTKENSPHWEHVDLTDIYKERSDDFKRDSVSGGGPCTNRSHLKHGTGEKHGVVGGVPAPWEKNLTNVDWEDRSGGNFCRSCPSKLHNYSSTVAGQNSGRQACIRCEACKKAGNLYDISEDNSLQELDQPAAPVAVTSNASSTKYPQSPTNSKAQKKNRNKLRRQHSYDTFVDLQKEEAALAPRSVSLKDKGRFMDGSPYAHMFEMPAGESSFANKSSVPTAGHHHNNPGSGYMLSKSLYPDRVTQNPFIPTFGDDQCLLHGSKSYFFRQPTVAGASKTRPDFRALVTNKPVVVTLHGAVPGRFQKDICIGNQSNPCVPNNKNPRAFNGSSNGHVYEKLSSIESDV
GluN1/GluN2A (Rattus norvegicus, UniProt P35439+Q00959), sequence (Q00959 23-1464, other chains not shown): as the sequence (Q00959 23-1464, other chains not shown) above

## Cl.O=C(O)C(Cc1nnn[nH]1)[C@@H]1CCN[C@H]1C(=O)O (relative stereo) [3q-s3,4, trans-3-(1-Carboxy-2-(1H-tetrazol-5-yl)ethyl)pyrrolidine-2-carboxylic Acid Hydrochloride]
Native NMDA receptors
  pKi NMDA (mean ± SEM, in brackets): 6.61 ± 0.07
GluN1/GluN2B
  Ki: 2.7 ± 0.1 µM
GluN1/GluN2C
  Ki: 12 ± 1 µM
GluN1/GluN2D
  Ki: 62 ± 9 µM
GluN1/GluN2A [1]
  Ki: 0.61 ± 0.02 µM
GluN1/GluN2A [2]
  fold preference as antagonist for GluN1/GluN2A over GluN1/GluN2B-D: 4.4−100 fold
